In patent publication US8257734B2, “PQS and its conjugates as adjuvants and their uses in pharmaceutical compositions” (Helmhotlz-Zentrum Fuer Infektions-Forschung GmbH, priority 2005, dated 2012):
Entries after “also recorded” stand apart in the source; their conditions may differ.

Key:
β-gal-specific IgG = experiment: β-gal-specific serum IgG ELISA after immunization with β-gal plus adjuvant; format: in vivo, BALB/c (H-2d) mice; details: 30 μg β-gal + 10 μg adjuvant, vs β-gal alone
Method: Experimental protocol: six-eight weeks-old female BALB/c (H-2d) mice were purchased from Harlan Winkelmann GmbH (Borchen, Germany) and treated in accordance with local and European Community guidelines. Groups of 5 mice each were immunized on day 1, 14 and 28 with 30 μg of β-gal (Boehringer, Mannheim, Germany), alone or as an admixture with 10 μg PQS-PEG or with 10 μg PQS (structure of said compounds are shown in FIG. 1). For intranasal (i.n.) immunization, 10 μl were applied to each naris, whereas for the s.c. injection β-gal with or without c-PQS-PEG or PQS, respectively, was resuspended in a volume of 20 μl PBS per animal. Serum samples were collected at day 38 after immunization and stored at −20° C. prior to determination of β-gal-specific antibodies. 96-well Nunc-Immuno MaxiSorp assay plates (Nunc, Roskilde, Denmark) were coated with 100 μl of β-gal (Boehringer, Mannheim, Germany) at 5 μg/ml in 0.05 M carbonate buffer (pH 8.2) per well. Serial two-fold dilutions of sera in PBS with 1% BSA and 0.05% Tween 20 were added (100 μl/well), and plates incubated for 16 h at 37° C. After washing, biotinylated γ-chain-specific goat anti-mouse IgG (Sigma Chemie, Deisenhofen, Germany) was added, and plates were incubated for an additional 1 h at 37° C. After four washes, 100 μl of peroxidase-conjugated streptavidin (Pharmingen) was added to cells and plates incubated at 37° C. for 30 min.

spleen cells = experiment: [3H]thymidine proliferation of spleen cells from vaccinated mice restimulated in vitro with β-gal; format: in vivo, BALB/c (H-2d) mice; details: day 38, vs β-gal alone
Method: Experimental protocol: Spleens were removed and pooled for analysis of cellular immune responses. […] Spleen cell suspensions were adjusted to 5×10^6 cells/ml in complete medium, cells were seeded with 100 μl per well in a flat-bottomed 96-well microtiter plate (Nunc) and plates were incubated for 4 days in the presence of different concentrations of soluble β-gal. That is, T cell mediated immune responses were investigated at day 38 by measuring the proliferation after in vitro restimulation with β-Gal of cells which have been recovered from spleens before. […] Each concentration was tested in quadruplicate. During the final 18 h of culture, 1 μCi of [3H]thymidine (Amersham International, Freiburg, Germany) was added to each well. […] The results are expressed as the arithmetic mean of [^3H]thymidine uptake in cpm.
Thirty eight days following vaccination, spleens cells were purified, re-stimulated in vitro in the presence of various amounts of β-galactosidase and their proliferative capacity was estimated by measuring the incorporation of [3H]thymidine into their DNA using a β-scintillation counter.

[1] = tested on: splenic IFNγ, IL-2 and IL-4 producing cells; experiment: ELISPOT of cytokine producing spleen cells from vaccinated mice; format: in vivo; details: for splenic IL-2 producing cells / splenic IL-4 producing cells: restimulation with β-Gal protein
Method: Experimental protocol: Spleens from vaccinated mice were removed and pooled for analysis of cellular immune responses. […] Spleen cell suspensions were adjusted to 5×10^6 cells/ml in complete medium, cells were seeded with 100 μl per well in a flat-bottomed 96-well microtiter plate (Nunc) and plates were incubated for 4 days in the presence of different concentrations of soluble β-gal.
For coating ELISPOT plates, said plates were incubated with 100 μl/well of purified capture antibody (10 μg/ml in coating buffer) at 4° C. overnight. […] The activated cells were seeded at 100 μl per well and incubate at 37° C., in a 5% CO2 humidified incubator for 24 hours or 48 h hours. After 5× washing steps with washing buffer and 1× step with distilled water, 100 μl/well of the biotinylated detection antibody with a concentration of 1 μg/ml in Assay Diluent was added and incubated at room temperature for 2 hrs. After further washing steps 100 μl/well of the AV-HRP at 1/1000 dilution in Assay Diluent was added and incubated at room temperature for 30 minutes. After further washing steps 100 μl/well of AEC Substrate Solution was added and developed at room temperature for 10-60 minutes until visible spots appeared. After washing steps with (3×) with 200 μl/well distilled water, the plates were air-dried and analyzed by counting the spots by an ELISPOT reader. Each concentration was tested in triplicates.

[2] = tested on: IFN-γ, IL-2, IL-4, IL-5, and TNFα; experiment: Cytometric Bead Array of cytokines in supernatants of in vitro re-stimulated spleen cells; format: in vivo, mice; details: vs β-Gal without additional adjuvant
Method: Experimental protocol: Spleens from vaccinated mice were removed and pooled for analysis of cellular immune responses. The protocol for vaccination was identical to the protocol described in Example 2. Cells were grown in RPMI 1640 supplemented with 10% fetal calf serum, 100 U/ml of penicillin, 50 μg/ml of streptomycin, 5×10^−5 M 2-mercaptoethanol and 1 mM L-glutamine (GIBCO BRL, Karlsruhe, Germany) and maintained at 37° C. in a humidified 5% CO2 atmosphere. Spleen cell suspensions were adjusted to 5×10^6 cells/ml in complete medium, cells were seeded with 100 μl per well in a flat-bottomed 96-well microtiter plate (Nunc) and plates were incubated for 4 days in the presence of different concentrations of soluble β-gal.
To characterize the type of Th response stimulated following immunization, the content of IFN-γ, IL-2, IL-4, IL-5, and TNFα was measured in supernatants from in vitro re-stimulated spleen cells (FIG. 6A for s.c. immunization and FIG. 6B for i.n. immunization) by the Cytometric Bead Array. Culture supernatants from proliferating cells were collected on days 2 and 4, and stored at −70° C. […] The probes were analyzed subsequently by flow cytometry as described in the protocol of BD.

β-gal-specific IgA = β-gal-specific IgA in lung and vaginal lavages after i.n. immunization; format: in vivo, BALB/c (H-2d) mice; details: day 38, vs β-gal alone
Method: Experimental protocol: at day 38, mice were sacrificed and the final sampling was performed. Vaginal and lung lavages were obtained by flushing the organs with 1 ml of PBS supplemented with 50 mM EDTA, 0.1% BSA, and 10 mM PMSF. Lavages were then centrifuged to remove debris (10 min at 3000×g), and supernatant fluids were stored at −20° C. To determine the concentration of total IgA present in the lung and vaginal lavages, serial dilutions of the corresponding samples were incubated in microtiter plates that were previously coated with goat anti-mouse IgA (Sigma Chemie), as capture antibodies (100 μl/well). Serial dilutions of purified mouse IgA (Sigma Chemie) were used to generate a standard curve.

[3] = tested on: human peripheral blood mononuclear cells; details: stimulated with the lectin ConA; cited from earlier work
P815 target cells = experiment: Cr51 release cytotoxicity assay with effector cells of immunized mice; format: in vivo; details: mice immunized with β-gal/PQS subcutaneously; FIG. 8A; vs non-immunized mice
Method: This system is based on the measurement of the Cr51 release of target cells due to specific lysis. In particular, with the amount of radioactivity detectable in the supernatant, the specific lysis can be calculated.
Prior the Cytotoxicity Assay, P815 target cells were split and resuspended and adjusted to 2×10E6 cells/300 μl DMEM. The P815 cells were incubated with an MHC class I β-gal specific peptide for 1.5 h, while slightly agitating the cells every 15 min to improve binding between the peptide and the MHC class I molecule. After washing the cells, cells were resuspended in 150 μl medium without FCS and cultured for 2 h in the presence of 100 μci 51Chrom. Every 30 min, the cell suspension was agitated slightly. Subsequently, cells were washed twice in DMEM plus 10% FCS to remove unbound 51Cr. The cells were adjusted to […]. The effector cells were diluted serially (1×10E6, 0.5×10E6, 0.25×10E6, and 0.125×10E6). 50 μl of the murine target cells (10000 cells) were added to the effector cells, thus, the ratio of effector cells/target cells is 100:1, 50:1, 25:1, and 12.5:1, respectively. […] 25 or 30 μl, supernatant was taken from each of the wells and radioactivity according to standard practice determined. The specific lysis was calculated taking spontaneous lysis and maximal lysis into account.

TNF-alpha = details: cited from earlier work
[4] = tested on: spleenocytes stimulated with ConA; details: cited from earlier work
IL-2 = details: cited from earlier work
[5] = tested on: β-gal antigen-specific IgG1; experiment: Isotyp ELISA of β-gal-specific IgG subclasses in sera of vaccinated mice; format: in vivo
Method: Isotyp ELISA: 96-well Nunc-Immuno MaxiSorp assay plates (Nunc, Roskilde, Denmark) were coated with 100 μl of β-gal (Boehringer, Mannheim, Germany) at 5 μg/ml in 0.05 M carbonate buffer (pH 9.6) per well. Serial two-fold dilutions of sera or lavages in PBS with 1% BSA and 0.05% Tween 20 were added (100 μl/well), and plates incubated for 2 h at 37° C. After washing, biotin-conjugated rat anti-mouse IgG1 or IgG2a (Pharmingen, Hamburg, Germany) were added to determine IgG subclasses. Plates were incubated for an additional 1 h at 37° C. After four washes, 100 μl of peroxidase-conjugated streptavidin (Pharmingen) was added to cells and plates incubated at 37° C. for 30 min. […] To determine the concentration of IgG subclasses in serum, standard curves were obtained by coating the wells with an isotype-specific goat anti-mouse IgG, and then by incubating with purified mouse IgG1 or IgG2 antibodies (Dianova, Hamburg, Germany).

Structure (SMILES): CCCCCCCC1=Nc2ccccc2C(=O)C1O (centres unmarked) [PQS, 2-heptyl-3-hydroxy-4-quinolone]
- β-gal specific IgG titer in sera (β-gal-specific IgG; i.n. immunization day 1, 14, 28, sera day 38): increased expression; also recorded: remarkably increased
- β-gal specific IgG titer in sera (β-gal-specific IgG; s.c. (parenteral) immunization day 1, 14, 28): remarkably increased
- spleen cell proliferation ([3H]thymidine uptake) after β-gal restimulation (spleen cells; i.n. immunization): efficient adjuvant; also recorded: efficient proliferative response at low amounts of antigen; also recorded: statistically significant increment
- spleen cell proliferation ([3H]thymidine uptake) after β-gal restimulation (spleen cells; s.c. immunization): efficient adjuvant; also recorded: further increase in proliferation; also recorded: statistically significant increment
- splenic IL-2 producing cells ([1]; i.n. route): strong expression
- splenic IL-4 producing cells ([1]; i.n. route): strong expression
- amounts of IFNγ expressing cells ([1]; i.n. vaccination, compared with s.c. vaccination): lower to the level determined after s.c. vaccination
- expression of Th1 and Th2 cytokines after restimulation of spleen cells ([1]; intranasal immunization (FIG. 7B)): increased expression
- number of splenic IFNγ producing cells ([1]; parenteral (s.c.) vaccination, restimulation with MHC class I-restricted β-Gal peptide (CD8 epitope), FIG. 7A): increment
- splenic IL-2 producing cells ([1]; s.c. route): strong expression
- splenic IL-4 producing cells ([1]; s.c. route): strong expression
- expression of Th1 and Th2 cytokines after restimulation of spleen cells ([1]; subcutaneous immunization (FIG. 7A)): increased expression
- levels of IL-5 ([2]; i.n. route): significantly higher
- levels of IL-5 ([2]; s.c. route): significantly higher
- β-gal-specific IgA in lung lavage (β-gal-specific IgA): slight increase
- β-gal-specific IgA in vaginal lavage (β-gal-specific IgA): slight increase
- proliferation of human peripheral blood mononuclear cells [3]: proliferation inhibiting activity
- specific lysis of peptide-pulsed target cells by β-gal restimulated CD8+ T-cells (P815 target cells): demonstrates the cytotoxic capacity
- TNF-alpha production (TNF-alpha; at high concentrations): enhances
- TNF-alpha release from PMCs (TNF-alpha; at low doses, stimulated with LPS): no effect
- proliferation of spleenocytes [4]: inhibiting activity
- IL-2 release from PMCs (IL-2; at low doses, stimulated with ConA): no effect
- IL-2 secretion (IL-2): inhibited
- antigen-specific antibody response ([5]; i.n. immunization): strong antigen-specific antibody response
- antigen specific antibodies of the IgG1 subtype in sera ([5]; intranasal administration, FIG. 5B): strongly increased
- expression of the IgG1 isotype in sera ([5]; subcutaneous administration, FIG. 5A): strongly increased
